Measurements published in patent publication US20080227780A1, “SOLUBLE EPOXIDE HYDROLASE INHIBITORS” (Arete Therapeutics, Inc., priority 2007, published 2008).

System: soluble epoxide hydrolase (sEH)
Assay: Fluorescent assay for soluble epoxide hydrolase (CMNPC substrate), percent inhibition at the recited concentration
Type: biochemical
Conditions: Inhibition Conc. 50 nM
Text: Fluorescent Assay for Mouse and Human Soluble Epoxide Hydrolase Recombinant mouse sEH (MsEH) and human sEH (HsEH) were produced in a baculovirus expression system as previously reported. Grant et al., J. Biol. Chem., 268:17628-17633 (1993); Beetham et al., Arch. Biochem. Biophys., 305:197-201 (1993). The expressed proteins were purified from cell lysate by affinity chromatography. Wixtrom et al., Anal. Biochem., 169:71-80 (1988). Protein concentration was quantified using the Pierce BCA assay using bovine serum albumin as the calibrating standard. The preparations were at least 97% pure as judged by SDS-PAGE and scanning densitometry. They contained no detectable esterase or glutathione transferase activity which can interfere with the assay. The assay was also evaluated with similar results in crude cell lysates or homogenate of tissues. The IC50s for each inhibitor were determined according to the following procedure: […] Jones P. D. et al.; Analytical Biochemistry 2005; 343: pp. 66-75) Bis/Tris HCl 25 mM pH 7.0 containing 0.1 mg/mL of BSA (buffer […] at 0.25 mM in DMSO. Mother solution of enzyme in buffer A (Mouse sEH at 6 μg/mL and Human sEH at 5 μg/mL). Inhibitor dissolved in DMSO at the appropriate concentration. In a black 96 well plate, fill all the wells with 150 μL of buffer A. Add 2 μL of DMSO in well A2 and A3, and then add 2 μL of inhibitor solution in A1 and A4 through A12. Add 150 μL of buffer A in row A, then mix several time and transfer 150 μL to row B. Repeat this operation up to row H. The 150 μL removed from row H is discarded. Add 20 μL of buffer A in column 1 and 2, then add 20 μL of enzyme solution to column 3 to 12. Incubate the plate for 5 minutes in the plate reader at 30° C. During incubation prepare the working solution of substrate by mixing 3.68 mL of buffer A (4×0.920 mL) with 266 μL (2×133 μL) of substrate solution). At t=0, add 30 μL of working substrate solution with multi-channel pipette labeled “Briggs 303” and start the reading ([S]final: 5 μM). Read with ex: 330 nm (20 nm) and em: 465 nm (20 nm) every 30 second for 10 minutes. The velocities are used to analyze and calculate the IC50s. Tables 1-7 above provide the percent inhibition of the enzyme when tested at the concentration recited therein.

Compound	% inh. [%]
CC(=O)N1CCC(NC(=O)NCC23CC4CC(CC(C4)C2)C3)CC1 [Compound 1-1, 1-(1-acetyl-piperidin-4-yl)-3-(1-adamantyl-methyl)-urea]	87
O=C(Nc1ccc(C(F)(F)F)cc1)NC1CCN(c2ccc(C(F)(F)F)cn2)CC1 [Compound 2-1]	13
O=C(Nc1ccc(C(F)(F)F)cc1)NC1CCN(c2ncccc2C(F)(F)F)CC1 [Compound 2-2]	97
O=C(NC1CCN(c2ccccc2)CC1)NC12CC3CC(CC(C3)C1)C2 [Compound 2-3, 1-(1-adamantyl)-3-(1-phenylpiperidin-4-yl)urea]	98
O=C(Nc1ccc(C(F)(F)F)cc1)NC1CCN(c2ccccc2)CC1 [Compound 2-5, 1-(1-phenylpiperidin-4-yl)-3-(4-(trifluoro-methyl)phenyl)urea]	99
NC(=O)c1cccnc1N1CCC(NC(=O)Nc2ccc(C(F)(F)F)cc2)CC1 [Compound 2-6, 2-(4-(3-(4-(trifluoro-methyl)phenyl)ureido)-piperidin-1-yl)nicotinamide]	60

Other lines, results leading:

% inh. [%]	Compound
90	NS(=O)(=O)c1ccc(C(=O)N2CCC(NC(=O)Nc3ccc(C(F)(F)F)cc3)CC2)cc1 [Compound 4-1, 4-(4-(3-(4-(trifluoromethyl)phenyl)ureido)piperidine-1-carbonyl)benzene-sulfonamide]
98	NS(=O)(=O)c1ccc(C(=O)N2CCC(NC(=O)Nc3ccc(OC(F)(F)F)cc3)CC2)cc1 [Compound 4-2, 4-(4-(3-(4-(trifluoromethoxy)-phenyl)ureido)-piperidine-1-carbonyl)benzenesulfonamide]
93	NS(=O)(=O)c1ccc(C(=O)N2CCC(NC(=O)NC34CC5CC(CC(C5)C3)C4)CC2)cc1 [Compound 4-3, 4-(4-(3-(1-adamantyl)ureido)-piperidine-1-carbonyl)benzene-sulfonamide]
93	NS(=O)(=O)c1cccc(C(=O)N2CCC(NC(=O)NC34CC5CC(CC(C5)C3)C4)CC2)c1 [Compound 4-4, 3-(4-(3-(1-adamantyl)ureido)-piperidine-1-carbonyl)benzene-sulfonamide]
99	CNS(=O)(=O)c1cccc(C(=O)N2CCC(NC(=O)NC34CC5CC(CC(C5)C3)C4)CC2)c1 [Compound 4-5, 3-(4-(3-(1-adamantyl)ureido)-piperidine-1-carbonyl)-N-methylbenzene-sulfonamide]
99	NS(=O)(=O)c1cccc(C(=O)N2CCC(NC(=O)Nc3ccc(C(F)(F)F)cc3)CC2)c1 [Compound 4-6, 3-(4-(3-(4-(trifluoromethyl)phenyl)ureido)piperidine-1-carbonyl)benzene-sulfonamide]
92	CNS(=O)(=O)c1ccc(C(=O)N2CCC(NC(=O)Nc3ccc(C(F)(F)F)cc3)CC2)cc1 [Compound 4-7, 4-(4-(3-(4-(trifluoromethyl)phenyl)ureido)piperidine-1-carbonyl)-N-methylbenzene-sulfonamide]
93	CNS(=O)(=O)c1ccc(C(=O)N2CCC(NC(=O)NC34CC5CC(CC(C5)C3)C4)CC2)cc1 [Compound 4-8, 4-(4-(3-(1-adamantyl)ureido)-piperidine-1-carbonyl)-N-methylbenzene-sulfonamide]
99	CNS(=O)(=O)c1cccc(C(=O)N2CCC(NC(=O)Nc3ccc(C(F)(F)F)cc3)CC2)c1 [Compound 4-9, N-methyl-3-(4-(3-(4-(trifluoromethyl)phenyl)ureido)piperidine-1-carbonyl)benzene-sulfonamide]

Same assay, conditions: Inhibition Conc. 200 nM

Compound	% inh. [%]
CC(=O)N1CCC(NC(=O)NCc2ccc(C(F)(F)F)cc2)CC1 [Compound 1-3, 1-(1-acetylpiperidin-4-yl)-3-(4-(trifluoromethyl)benzyl)urea]	93
CC(=O)N1CCC(NC(=O)NCCC(c2ccccc2)c2ccccc2)CC1 [Compound 1-7, 1-(1-acetypiperidin-4-yl)-3-(3,3-diphenylpropyl)urea]	100
O=C(Nc1ccc(C(F)(F)F)cc1)NC1CCN(c2nccs2)CC1 [Compound 2-8, 1-(1-(thiazol-2-yl)piperidin-4-yl)-3-(4-(trifluoromethyl)phenyl)urea]	98

More lines, now with the values ahead:

% inh. [%]	Compound
42	CC(=O)N1CCC(NC(=O)NC23CC4CC(C2)C(=O)C(C4)C3)CC1 [Compound 3-9, 1-(1-acetylpiperidin-4-yl)-3-(4-oxoadamantyl)urea]
76	CC(=O)N1CCC(NC(=O)NC23CC4CC(C2)C(F)(F)C(C4)C3)CC1 [Compound 3-10, 1-(1-acetylpiperidin-4-yl)-3-(4,4-difluoroadamantyl)urea]
88	CC(=O)N1CCC(NC(=O)NC23CC4CC(C2)C(F)C(C4)C3)CC1 (stereo not drawn) [Compound 3-11, 1-(1-acetylpiperidin-4-yl)-3-(4-fluoroadamantyl)urea]

Same assay, conditions: Inhibition Conc. 500 nM

Compound	% inh. [%]
CC(=O)N1CCC(NC(=O)NCC2CCCCC2)CC1 [Compound 1-2, 1-(1-acetylpiperidin-4-yl)-3-(cyclo-hexylmethyl)urea]	92
CC(=O)N1CCC(NC(=O)NCCCCCCCCO)CC1 [Compound 1-6, 1-(1-acetylpiperidin-4-yl)-3-(8-hydroxyoctyl)urea]	85
O=C(Nc1ccc(C(F)(F)F)cc1)NC1CCN(c2ncccc2C(=O)O)CC1 [Compound 2-7]	64

The next lines start with the values.

% inh. [%]	Compound
70	CC(=O)N1CCC(NC(=O)NC23CC4(F)CC(F)(CC(F)(C4)C2)C3)CC1 [Compound 3-1, 1-(1-acetylpiperidin-4-yl)-3-(3,5,7-trifluoroadamant-1-yl)urea]
63	CC(=O)N1CCC(NC(=O)NC23CC4CC(F)(CC(F)(C4)C2)C3)CC1 [Compound 3-3, 1-(1-acetylpiperidin-4-yl)-3-(3,5-difluoroadamant-1-yl)urea]
82	CC(=O)N1CCC(NC(=O)NC23CC4CC(CC(F)(C4)C2)C3)CC1 [Compound 3-4, 1-(1-acetylpiperidin-4-yl)-3-(3-fluoroadamant-1-yl)urea]

Same assay, conditions: Inhibition Conc. 2000 nM

% inh. [%]	Compound
80	CC(=O)N1CCC(NC(=O)NCC2CCOCC2)CC1 [Compound 1-4, 1-(1-acetylpiperidin-4-yl)-3-((tetrahydro-2H-pyran-4-yl)methyl)urea]
66	COc1ccc(CNC(=O)NC2CCN(C(C)=O)CC2)cc1OC [Compound 1-5, 1-(1-acetylpiperidin-4-yl)-3-(3,4-dimethoxy-benzyl)urea]
95	COC(=O)c1ccc(CNC(=O)NC2CCN(C(C)=O)CC2)cc1 [Compound 1-8, methyl 4-((3-(1-acetylpiperidin-4-yl)ureido)methyl)benzoate]
99	O=C(Nc1ccc(OC(F)(F)F)cc1)NC1CCN(c2ccccc2)CC1 [Compound 2-9, 1-(1-phenylpiperidin-4-yl)-3-(4-(trifluoromethoxy)phenyl)urea]
100	O=C(Nc1ccc(OC(F)(F)F)cc1)NC1CCN(c2ccc(F)cc2)CC1 [Compound 2-11, 1-(1-(4-fluorophenyl)piperidin-4-yl)-3-(4-(trifluoromethoxy)phenyl)urea]
18	O=C(Nc1ccc(C(F)(F)F)cc1)NC1CCN(c2ccccc2F)CC1 [Compound 2-13, 1-(1-(2-fluorophenyl)piperidin-4-yl)-3-(4-(trifluoromethyl)phenyl)urea]

Same assay, conditions: Inhibition Conc. 5000 nM

% inh. [%]	Compound
87	CC(=O)N1CCC(NC(=O)NC23CC4CC(C2)C(O)C(C4)C3)CC1 (single isomer, unassigned) [Compound 3-5, 1-(1-acetylpiperidin-4-yl)-3-(4-hydroxyadamant-1-yl)urea]
81	CC(=O)N1CCC(NC(=O)NC23CC4CC(C2)C(O)C(C4)C3)CC1 (single isomer, unassigned) [Compound 3-7]
76	CC(=O)N1CCC(NC(=O)NC23CC4CC(C2)C(O)C(C4)C3)CC1 (single isomer, unassigned) [Compound 3-8]
92	O=C(NC1CCN(c2ccncc2)CC1)NC12CC3CC(CC(C3)C1)C2 [Compound 2-4, 1-(1-adamantyl)-3-(1-(pyridin-4-yl)piperidin-4-yl)urea]
67	CC(=O)N1CCC(NC(=O)NC23CC4CC(CC(O)(C4)C2)C3)CC1 [Compound 3-2, 1-(1-acetylpiperidin-4-yl)-3-(3-hydroxyadamant-1-yl)urea]

Same assay, conditions: Inhibition Conc. 50000 nM

% inh. [%]	Compound
94	CC(=O)N1CCC(NC(=O)NC23CC4CC(CC(C4)C2O)C3)CC1 (stereo not drawn) [Compound 3-6, 1-(1-acetylpiperidin-4-yl)-3-(2-hydroxyadamant-1-yl)urea]
